Measured values: US8765746B2 (Millennium Pharmaceuticals, Inc., priority 2010, dated 2014)

Columns and labels:
Assay type in all cases: biochemical
PI3Kalpha = molecular target: T1, PI3Kalpha (Homo sapiens, UniProt P42336); assay: Human PI3Kα enzyme assay (HTRF); settings: for inhibition at 1.11 µM: read-out: PI3Kalpha % inh; for PI3Kalpha % inh: at 1.11 μM
T1 construct: His (N); host or cells: SF9 insect cells (baculovirus)
Text: (§1) The catalytic subunits of PI3Ks are cloned into either pDEST8(p110 alpha) or pDEST10(p110beta, p110delta, and p110gamma) as N-terminal His tagged fusion proteins using the Gateway system (Invitrogen, catalog#11804-010 for pDEST8 and 11806-015 for pDEST10). The sequences are verified before recombinant protein expression using the Baculovirus Expression System with Gateway® Technology. The accession numbers for the subunits are as follows:
(§2) The regulatory subunits of PI3Ks are cloned into pDEST8 as un-tagged protein using the Gateway system (Catalog#11804-010). The sequences are verified before recombinant protein expression using the Baculovirus Expression System with Gateway® Technology. The accession numbers for the subunits are as follows:
(§3) For expression of the p110 complexes, the p85 (MOI of 4) is co-infected with p110 alpha, beta, and delta respectively (1MOI) in SF9 cells and harvested at 60 hours post co-infection. P110 gamma was infected at 1 MOI and harvested at 60 hours post infection.
(§4) For purification, PI3Ks are purified by Ni-NTA Agarose (Qiagen #30250) followed by Mono Q 10/100 GL (Ge Healthcare #17-5167-01). VPS34 is purified by Glutathione Sepharose 4 Fast Flow (GE Healthcare #17-5132-03) followed by HiTrap Q (GE Healthcare #17-1153-01).
1) Human PI3Kα enzyme assay method
(§5) 0.5 uL compounds in DMSO are added to wells of a 384 well microtitre plate (Corning 3575). At room temperature: 10 ul PI3K reaction buffer (50 mM Hepes, 5 mM DTT, 150 mM NaCl, 10 mM beta-glycerophosphate, 10 mM MgCl2, 0.25 mM sodium cholate and 0.001% CHAPS, pH 7.00) containing ATP (25 uM, Promega) is added followed immediately by 10 ul PI3K reaction buffer containing di-C8 PI(4,5)P2 (3.5 uM, CellSignals) and PI3Kalpha (0.4875 nM, Millennium Protein Sciences Group) and the mixture is incubated with shaking at room temperature for 30 minutes. Then 5 ul PI3K stop mix (50 mM Hepes, 5 mM DTT, 150 mM NaCl, 0.01% Tween-20, 15 mM EDTA and 25 nM biotin-PI(3,4,5)P3 (Echelon) is added to quench the reaction followed immediately by addition of 5 ul HTRF detection mix (50 mM Hepes, 5 mM DTT, 150 mM NaCl, 0.01% Tween-20, 40 mM KF, 10 nM GST:GRP-1 PH domain (Millennium Protein Sciences Group), 15 nM Streptavidin-XL (CisBio) and 0.375 nM anti-GST Eu++ antibody (CisBio) at pH 7.00). The plates are then incubated for 1 hour at room temperature with shaking and then read on a BMG PheraStar Plus reader.

PI3Kdelta = molecular target: T2, PI3Kdelta (Homo sapiens, UniProt O00329); assay: Human PI3K delta enzyme assay (HTRF, as for PI3K alpha); settings: for inhibition at 1.11 µM: read-out: PI3Kdelta % inh; for PI3Kdelta % inh: at 1.11 μM
T2 construct: His (N); host or cells: SF9 insect cells (baculovirus)
T2 sequence (O00329 whole entry): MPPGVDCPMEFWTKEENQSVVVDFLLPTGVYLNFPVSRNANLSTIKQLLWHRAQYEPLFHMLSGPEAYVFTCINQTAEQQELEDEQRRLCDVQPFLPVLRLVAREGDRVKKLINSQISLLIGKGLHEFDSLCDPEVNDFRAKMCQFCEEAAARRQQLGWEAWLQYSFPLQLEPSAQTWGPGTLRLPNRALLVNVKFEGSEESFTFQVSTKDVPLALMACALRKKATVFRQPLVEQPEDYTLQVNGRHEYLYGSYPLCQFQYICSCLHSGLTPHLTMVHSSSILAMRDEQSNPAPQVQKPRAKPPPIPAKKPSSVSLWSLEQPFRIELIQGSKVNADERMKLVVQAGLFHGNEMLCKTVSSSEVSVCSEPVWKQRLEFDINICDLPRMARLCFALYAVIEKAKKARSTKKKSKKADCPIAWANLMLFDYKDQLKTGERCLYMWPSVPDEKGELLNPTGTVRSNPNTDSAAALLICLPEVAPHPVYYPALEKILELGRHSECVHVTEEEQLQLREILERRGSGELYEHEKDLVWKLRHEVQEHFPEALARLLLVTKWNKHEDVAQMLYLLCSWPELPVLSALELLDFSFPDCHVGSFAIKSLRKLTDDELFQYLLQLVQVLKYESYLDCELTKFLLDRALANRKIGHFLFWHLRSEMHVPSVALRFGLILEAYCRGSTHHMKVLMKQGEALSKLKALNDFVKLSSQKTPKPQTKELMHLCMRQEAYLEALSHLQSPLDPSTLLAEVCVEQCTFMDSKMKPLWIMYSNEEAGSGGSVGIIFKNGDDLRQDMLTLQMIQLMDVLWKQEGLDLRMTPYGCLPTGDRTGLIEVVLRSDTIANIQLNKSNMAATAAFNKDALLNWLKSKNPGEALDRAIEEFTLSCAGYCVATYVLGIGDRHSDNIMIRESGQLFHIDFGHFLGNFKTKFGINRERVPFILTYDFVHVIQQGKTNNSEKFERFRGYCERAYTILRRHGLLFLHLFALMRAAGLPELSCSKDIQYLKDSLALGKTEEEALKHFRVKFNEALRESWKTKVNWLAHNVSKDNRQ
T2 sequence (P27986 whole entry partner): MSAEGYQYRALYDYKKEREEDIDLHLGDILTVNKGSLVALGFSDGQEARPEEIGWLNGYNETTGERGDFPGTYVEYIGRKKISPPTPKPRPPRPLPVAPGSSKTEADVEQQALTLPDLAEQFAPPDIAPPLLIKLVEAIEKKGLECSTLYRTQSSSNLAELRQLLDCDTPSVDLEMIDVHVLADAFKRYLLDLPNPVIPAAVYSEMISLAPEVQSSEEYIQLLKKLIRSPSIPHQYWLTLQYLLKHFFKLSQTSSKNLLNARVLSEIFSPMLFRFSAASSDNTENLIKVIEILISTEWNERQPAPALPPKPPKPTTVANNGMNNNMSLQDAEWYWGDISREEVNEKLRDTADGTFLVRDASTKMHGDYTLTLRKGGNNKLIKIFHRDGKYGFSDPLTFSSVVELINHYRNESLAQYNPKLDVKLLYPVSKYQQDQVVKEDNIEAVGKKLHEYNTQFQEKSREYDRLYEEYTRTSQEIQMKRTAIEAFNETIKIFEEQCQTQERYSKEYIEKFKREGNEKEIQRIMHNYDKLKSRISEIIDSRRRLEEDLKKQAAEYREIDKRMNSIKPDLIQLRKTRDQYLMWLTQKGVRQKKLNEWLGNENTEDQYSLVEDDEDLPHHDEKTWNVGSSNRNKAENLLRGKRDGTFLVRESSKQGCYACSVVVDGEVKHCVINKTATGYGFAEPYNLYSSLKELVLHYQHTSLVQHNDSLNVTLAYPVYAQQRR
Text: as §1, §2, §3, §4, §5
(§6) 2) Human PI3K beta, delta and gamma isoforms are tested using the procedure described for PI3K alpha above but with the following changes: PI3K beta (5.25 nM), PI3K delta (0.75 nM) and PI3K gamma (5 nM). All isoforms supplied by Millennium Protein Science Group.

PI3Kbeta = molecular target: T3, PI3Kbeta (Homo sapiens, UniProt P42338); assay: Human PI3K beta enzyme assay (HTRF, as for PI3K alpha); settings: for inhibition at 1.11 µM: read-out: PI3Kbeta % inh; for IC50: read-out: IC50 (inhibit PI3Kbeta); for inhibition at 1.11 µM / PI3Kbeta % inh: at 1.11 μM
T3 construct: His (N); host or cells: SF9 insect cells (baculovirus)
T3 sequence (P42338 whole entry): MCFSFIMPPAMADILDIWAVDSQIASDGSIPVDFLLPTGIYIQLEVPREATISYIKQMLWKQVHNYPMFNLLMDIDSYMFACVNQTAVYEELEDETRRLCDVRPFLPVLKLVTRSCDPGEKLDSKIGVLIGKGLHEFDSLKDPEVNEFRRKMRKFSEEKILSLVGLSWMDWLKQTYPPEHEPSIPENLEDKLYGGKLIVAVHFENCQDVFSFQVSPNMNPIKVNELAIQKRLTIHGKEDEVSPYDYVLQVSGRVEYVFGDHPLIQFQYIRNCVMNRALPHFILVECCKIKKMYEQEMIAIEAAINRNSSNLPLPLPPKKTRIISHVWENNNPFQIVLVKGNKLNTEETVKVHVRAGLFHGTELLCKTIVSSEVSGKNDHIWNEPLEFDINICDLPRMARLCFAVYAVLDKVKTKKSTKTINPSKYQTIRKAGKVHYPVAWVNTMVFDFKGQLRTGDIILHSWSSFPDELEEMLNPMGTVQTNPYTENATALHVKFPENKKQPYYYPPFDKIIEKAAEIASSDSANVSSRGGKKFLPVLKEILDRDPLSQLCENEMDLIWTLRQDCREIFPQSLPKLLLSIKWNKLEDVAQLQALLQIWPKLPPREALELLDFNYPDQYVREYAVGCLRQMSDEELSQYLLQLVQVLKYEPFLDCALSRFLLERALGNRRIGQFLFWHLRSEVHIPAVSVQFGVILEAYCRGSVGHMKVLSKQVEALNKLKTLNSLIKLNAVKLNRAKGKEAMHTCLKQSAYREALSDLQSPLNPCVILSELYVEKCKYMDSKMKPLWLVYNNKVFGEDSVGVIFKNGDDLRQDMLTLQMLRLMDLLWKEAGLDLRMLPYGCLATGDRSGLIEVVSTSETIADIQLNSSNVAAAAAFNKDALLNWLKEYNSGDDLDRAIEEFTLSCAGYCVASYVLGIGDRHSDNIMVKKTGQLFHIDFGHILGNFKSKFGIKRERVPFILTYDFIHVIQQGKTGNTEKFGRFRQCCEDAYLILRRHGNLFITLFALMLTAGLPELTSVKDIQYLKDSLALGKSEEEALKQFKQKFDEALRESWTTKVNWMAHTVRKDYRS
T3 sequence (P27986 whole entry partner): as the sequence (P27986 whole entry partner) above
Text: as §1, §2, §3, §4, §5, §6

PI3Kgamma = molecular target: T4, PI3Kgamma (Homo sapiens, UniProt P48736); assay: Human PI3K gamma enzyme assay (HTRF, as for PI3K alpha); settings: for inhibition at 1.11 µM: read-out: PI3Kgamma % inh; for PI3Kgamma % inh: at 1.11 μM
T4 construct: His (N); host or cells: SF9 insect cells (baculovirus)
Text: as §1, §2, §3, §4, §5, §6

VPS34 = molecular target: T5, VPS34 (Homo sapiens, UniProt Q8NEB9); assay: Human VPS34 enzyme assay (Adapta Universal Kinase Assay); settings: for inhibition at 1.11 µM: 1 h, read-out: VPS34 % ihn; for VPS34 % ihn: at 1.11 μM
T5 construct: GST (N); host or cells: SF9 insect cells (baculovirus)
T5 sequence (Q8NEB9 whole entry): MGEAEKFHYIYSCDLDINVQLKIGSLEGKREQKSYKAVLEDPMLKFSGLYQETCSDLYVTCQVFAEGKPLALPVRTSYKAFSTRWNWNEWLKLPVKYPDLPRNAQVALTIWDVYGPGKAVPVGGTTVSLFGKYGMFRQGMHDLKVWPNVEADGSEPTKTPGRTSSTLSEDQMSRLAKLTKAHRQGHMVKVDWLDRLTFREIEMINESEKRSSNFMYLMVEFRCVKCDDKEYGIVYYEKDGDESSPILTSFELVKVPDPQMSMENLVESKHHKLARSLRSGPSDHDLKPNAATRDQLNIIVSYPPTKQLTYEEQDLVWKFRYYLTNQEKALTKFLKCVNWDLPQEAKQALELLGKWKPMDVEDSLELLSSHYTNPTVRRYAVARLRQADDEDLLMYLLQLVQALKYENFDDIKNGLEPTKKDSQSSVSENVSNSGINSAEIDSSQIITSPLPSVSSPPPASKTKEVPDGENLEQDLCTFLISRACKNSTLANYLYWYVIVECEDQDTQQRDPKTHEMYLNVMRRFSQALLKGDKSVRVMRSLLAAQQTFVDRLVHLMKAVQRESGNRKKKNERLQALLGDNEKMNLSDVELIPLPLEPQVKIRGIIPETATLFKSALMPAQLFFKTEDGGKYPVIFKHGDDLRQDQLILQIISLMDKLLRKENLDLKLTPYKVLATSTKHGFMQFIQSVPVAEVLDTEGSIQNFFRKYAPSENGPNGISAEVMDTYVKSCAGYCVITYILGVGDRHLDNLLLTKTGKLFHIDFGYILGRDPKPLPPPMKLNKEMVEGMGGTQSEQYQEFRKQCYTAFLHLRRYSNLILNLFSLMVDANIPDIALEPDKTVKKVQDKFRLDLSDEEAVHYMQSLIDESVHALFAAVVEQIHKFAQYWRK
Description: VPS34 (accession number GB:BC033004) is cloned into pDEST20-Thombin as N-terminal GST tagged fusion proteins using the Gateway system (Invitrogen, catalog#11804-013). The sequences are verified before recombinant protein expression using the Baculovirus Expression System with Gateway® Technology.
For expression VPS34 was infected at 1MOI in SF9 cells and harvested 72 hours post infection.
For purification, VPS34 is purified by Glutathione Sepharose 4 Fast Flow (GE Healthcare #17-5132-03) followed by HiTrap Q (GE Healthcare #17-1153-01).
3) VPS34 is assayed using Adapta™ Universal Kinase Assay Kit (Invitrogen).
4) Human VPS34 enzyme assay method
100 mL compounds in DMSO are added to wells of a 384 well microtitre plate (Greiner 780076). At room temperature: 5 ul VPS34 reaction buffer (Invitrogen Assay Buffer Q (diluted 1 in 5 with nanopure water) plus 2 mM DTT and 2 mM MnCl2) containing ATP (20 uM, Promega) and 200 uM PI-PS substrate (Invitrogen PV5122) is added followed immediately by 5 ul VPS34 reaction buffer (as above) containing VPS34 (5 nM, Millennium Protein Sciences Group) and the mixture is incubated with shaking at room temperature for 1 hour. Then 5 ul VPS34 stop-detect mix (as per Invitrogen Adapta Assay kit (PV5009) instructions (contains kinase quench buffer, TR-FRET buffer, Adapta Eu anti-ADP antibody and Alexa Fluor 647 ADP tracer)) is added to quench the reaction. The plates are then incubated for 30 minutes at room temperature with shaking and then read on a BMG PheraStar Plus reader.

T1 sequence (P42336 whole entry): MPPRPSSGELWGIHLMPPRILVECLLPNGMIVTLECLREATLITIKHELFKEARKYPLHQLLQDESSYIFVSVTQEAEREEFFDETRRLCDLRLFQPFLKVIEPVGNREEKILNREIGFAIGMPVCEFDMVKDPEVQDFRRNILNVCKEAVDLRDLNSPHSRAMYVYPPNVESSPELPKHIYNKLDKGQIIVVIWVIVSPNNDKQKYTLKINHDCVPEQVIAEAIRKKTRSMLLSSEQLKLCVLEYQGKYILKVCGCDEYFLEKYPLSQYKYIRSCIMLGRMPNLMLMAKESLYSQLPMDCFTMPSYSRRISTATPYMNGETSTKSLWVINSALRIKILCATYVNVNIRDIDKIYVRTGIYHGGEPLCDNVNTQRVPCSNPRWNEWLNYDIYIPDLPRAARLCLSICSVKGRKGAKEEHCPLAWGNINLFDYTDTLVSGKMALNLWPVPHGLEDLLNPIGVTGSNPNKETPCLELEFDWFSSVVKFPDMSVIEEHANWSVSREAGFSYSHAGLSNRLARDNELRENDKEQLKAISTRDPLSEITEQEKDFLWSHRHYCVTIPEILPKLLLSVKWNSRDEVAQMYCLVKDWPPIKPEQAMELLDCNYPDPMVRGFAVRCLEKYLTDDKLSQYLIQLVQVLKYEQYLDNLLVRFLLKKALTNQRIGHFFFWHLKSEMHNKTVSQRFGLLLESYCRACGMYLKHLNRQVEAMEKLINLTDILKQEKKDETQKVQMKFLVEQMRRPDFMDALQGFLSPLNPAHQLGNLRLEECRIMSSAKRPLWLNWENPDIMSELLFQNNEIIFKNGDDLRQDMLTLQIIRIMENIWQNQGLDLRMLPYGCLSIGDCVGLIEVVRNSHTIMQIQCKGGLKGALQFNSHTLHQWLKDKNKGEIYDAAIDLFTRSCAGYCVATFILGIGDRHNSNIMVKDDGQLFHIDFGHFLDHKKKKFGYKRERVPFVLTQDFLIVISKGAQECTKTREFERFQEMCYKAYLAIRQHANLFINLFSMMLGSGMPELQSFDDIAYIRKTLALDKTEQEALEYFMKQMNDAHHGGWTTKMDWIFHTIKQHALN
T1 sequence (P27986 whole entry partner): as the sequence (P27986 whole entry partner) above

Structure (SMILES) | inhibition at 1.11 µM (PI3Kalpha) | inhibition at 1.11 µM (PI3Kdelta) | inhibition at 1.11 µM (PI3Kbeta) | IC50 (PI3Kbeta) | inhibition at 1.11 µM (PI3Kgamma) | inhibition at 1.11 µM (VPS34) | PI3Kalpha % inh (PI3Kalpha) | PI3Kdelta % inh (PI3Kdelta) | PI3Kbeta % inh (PI3Kbeta) | PI3Kgamma % inh (PI3Kgamma) | VPS34 % ihn (VPS34)
O=C1NCCC(c2ccc(Cl)cc2)c2cc(-c3ccncc3)sc21 (racemic) [Compound 8, 4-(4-chlorophenyl)-2-pyridin-4-yl-4,5,6,7-tetrahydro-8H-thieno[2,3-c]azepin-8-one] | 2.05% | 59.2% | 102% | < 0.1 µM | 21.9% | 2.55% | – | – | – | – | –
O=C1CCC(c2ccc(Cl)cc2)c2cc(-c3ccncc3)sc21 (racemic) [Compound 13, 4-(4-chlorophenyl)-2-pyridin-4-yl-5,6-dihydro-1-benzothiophen-7(4H)-one] | 3.1% | 55.7% | 102% | < 0.1 µM | 10.8% | 6.6% | – | – | – | – | –
O=S1(=O)NCC(O)(c2ccc(Cl)cc2)c2cc(-c3ccncc3)sc21 (racemic) [Compound 26, 4-(4-chlorophenyl)-6-pyridin-4-yl-3,4-dihydro-2H-thieno[3,2-e][1,2]thiazin-4-ol 1,1-dioxide] | 6.6% | 37.9% | 105% | < 0.1 µM | 11.7% | 1.2% | – | – | – | – | –
CC1(C)C(=O)c2sc(N3CCOCC3)cc2C1(C)c1ccc(Cl)cc1 (racemic) [Compound 118, 4-(4-chlorophenyl)-4,5,5-trimethyl-2-morpholino-4H-cyclopenta[b]thiophen-6(5H)-one] | 19.7% | 54.6% | 63% | – | 5.03% | 9.51% | – | – | – | – | –
COC(=O)[C@@H]1C(=O)c2sc(-c3ccncc3)cc2[C@H]1c1ccc(Cl)cc1 (relative stereo) [Compound 29, trans-methyl 4-(4-chlorophenyl)-6-oxo-2-(pyridin-4-yl)-5,6-dihydro-4H-cyclopenta[b]thiophene-5-carboxylate] | 6% | 20.9% | 87.8% | 0.1 to 1 µM | 4.6% | 1.4% | – | – | – | – | –
O=S1(=O)NCC(O)(c2ccc(Cl)cc2)c2cc(-c3ccncc3)sc21 (single isomer, unassigned) [Compound 2, 4-(4-chlorophenyl)-6-pyridin-4-yl-3,4-dihydro-2H-thieno[3,2-e][1,2]thiazin-4-ol 1,1-dioxide] | – | – | – | < 0.1 µM | – | – | 3.200% | 63.100% | 110.400% | 21.200% | 4.300%
O=S1(=O)NCC(O)(c2ccc(Cl)cc2)c2cc(-c3ccncc3)sc21 (single isomer, unassigned) [Compound 9, 4-(4-chlorophenyl)-6-pyridin-4-yl-3,4-dihydro-2H-thieno[3,2-e][1,2]thiazin-4-ol 1,1-dioxide] | 3.6% | – | – | 0.1 to 1 µM | – | – | – | 41.900% | 67.200% | 3.300% | −2.200%
O=C1NCCC(c2ccc(Cl)cc2)c2cc(-c3ccncc3)sc21 (single isomer, unassigned) [Compound 21, 4-(4-chlorophenyl)-2-pyridin-4-yl-4,5,6,7-tetrahydro-8H-thieno[2,3-c]azepin-8-one] | 6.07% | – | – | < 0.1 µM | – | 9.1% | – | 79.150% | 111.967% | 24.700% | –
O=C1CCC(c2ccc(Cl)cc2)c2cc(-c3ccncc3)sc21 (single isomer, unassigned) [Compound 22, 4-(4-chlorophenyl)-2-pyridin-4-yl-5,6-dihydro-1-benzothiophen-7(4H)-one] | – | 44.5% | – | < 0.1 µM | 14.2% | 4.4% | 0.600% | – | 97.500% | – | –
O=C1NCCC(c2ccc(Cl)cc2)c2cc(-c3ccncc3)sc21 (single isomer, unassigned) [Compound 25, 4-(4-chlorophenyl)-2-pyridin-4-yl-4,5,6,7-tetrahydro-8H-thieno[2,3-c]azepin-8-one] | – | – | – | 0.1 to 1 µM | – | – | 3.700% | 31.200% | 69.800% | 4.500% | 10.900%
N#Cc1c(N2CCOCC2)sc2c1C(c1ccc(Cl)cc1)OC2=O (stereo not drawn) [Compound 3, 4-(4-chlorophenyl)-2-morpholin-4-yl-6-oxo-4,6-dihydrothieno[2,3-c]furan-3-carbonitrile] | 10.8% | – | 65.7% | 0.1 to 1 µM | – | -2.5% | – | – | – | – | –
N#Cc1c(N2CCOCC2)sc2c1C(c1ccc3ccccc3c1)NC2=O (stereo not drawn) [Compound 169] | 50.6% | 98.2% | 99.7% | – | 71.3% | – | – | – | – | – | –
O=C1N[C@@H](C(=O)NCCCO)[C@H](c2ccc(Cl)cc2)c2cc(N3CCOCC3)sc21 [Compound 170] | – | 51.6% | – | – | 12.5% | – | 22.53% | – | 83.73% | – | –
O=C1NCCC(c2ccc3ccccc3c2)c2cc(N3CCOCC3)sc21 (stereo not drawn) [Compound 175] | 66.9% | 112% | 112% | – | 43.8% | – | – | – | – | – | –
O=C1NCC(c2ccc(Cl)c(Cl)c2)c2cc(N3CCOCC3)sc21 (stereo not drawn) [Compound 176, 4-(3,4-dichlorophenyl)-2-morpholino-5,6-dihydrothieno[2,3-c]pyridin-7(4H)-one] | – | 108% | – | – | 60.1% | – | 28.06% | – | 105.20% | – | –
Cc1cc(C2CNC(=O)c3sc(N4CCOCC4)c(C#N)c32)ccc1Cl (stereo not drawn) [Compound 190] | 57.5% | 101% | 123% | – | 35.8% | – | – | – | – | – | –
CCNC(=O)[C@@H]1NC(=O)c2sc(N3CCOCC3)cc2[C@H]1c1ccc(Cl)cc1 [Compound 197] | – | 47.4% | 84.1% | – | 9.08% | – | 19.34% | – | – | – | –
